Experimental data taken from patent US20180249714A1, “Liquid Termiticide Compositions of Pyrethroids and Neonicitinoids” (FMC Corporation, priority 2004, published 2018).

Columns and labels:
Format in all cases: in vivo
[1] = tested on: termite (Reticulitermes flavipes) workers; assay: Test to Determine Termite Mortality by Applications of Combinations of Bifenthrin and Imidacloprid (soil column in glass tube)
Description: (§1) The compositions of the present invention were tested for termiticide activity in the following manner:
Test compositions made up of TALSTAR® TERMITICIDE/INSECTICIDE and a wettable powder of imidacloprid in distilled water were prepared that provided appropriate rates of application of combinations of bifenthrin and imidacloprid, as well as bifenthrin and imidacloprid alone.
(§2) Glass tubing, 13 mm in diameter, was then cut into 20 cm sections in sufficient quantity to conduct the test. Each […] section of tubing was marked at 5 cm, 8 cm, and 18 cm distances from one end of the tube designated as the bottom. Each section of tubing was packed with a sandy soil (3% wt/wt moisture content) by first placing a section of a 1 cm diameter wooden dowel into the bottom of the glass tube up to the 8 cm marking, then introducing approximately 2 cm of soil into the other end of the tube designated as the top. The soil was then gently packed into the tube from the top using a second section of the 1 cm diameter wooden dowel. The process was repeated using 2 cm aliquots of soil until the soil level was adjacent to the 18 cm marking, thereby providing a column of soil 10 cm in height. An agar plug, which was formed in a section of the 13 mm diameter glass tubing of the type used to conduct these tests, was cut into 3 cm sections. A 3 cm section of agar was then gently pushed into the bottom of each tube containing the soil until the agar plug firmly touched the soil at the 8 cm marking, thereby creating a 5 cm void in the bottom of each section of tubing. Following placement of the agar plugs in each section of tubing; two sections of applicator sticks cut in 6 cm lengths were inserted into the bottom end of each tube thereby forcing about 1 cm of each stick into the agar plug to hold the agar plug in place. Plastic caps, with an inside diameter of 13 mm and holes drilled in their centers, were placed on the bottom ends of each of the sections of tubing. A sharpened applicator stick was then inserted into the hole in each plastic cap through the agar plug to the intersection of the agar plug and the soil. The applicator stick was then gently removed in a rotating manner to provide a means for a free flow of liquid through the soil. Each section of tubing was then stood upright, and 0.5 mL aliquots of each suspension of bifenthrin, imidacloprid or combinations thereof, as prepared above, were pipetted onto the top of the soil. Upon application of the test suspensions the top of each section of tubing was covered with a small piece of aluminum foil. The tubes were then allowed to stand for about 20 hours to allow movement of the termiticide(s) downward into the soil. After this time a plastic cap of 13 mm inside diameter was placed on the top of each section of tubing. The plastic caps with the holes drilled in their centers were removed from the bottom of each section of tubing, and a piece of 0.5 cm×4 cm filter paper was then placed between the two sections of applicator sticks. Fifty termite (Reticulitermes flavipes) workers were then inserted into the 5 cm void in the bottom of each section of tubing. New plastic caps without holes drilled in their centers were placed on the bottom of each section of tubing. The sections of tubing were then stored in an upright position, with the termites located below the soil. Termite mortality was measured at 1 hour, 2 hours, 1 day, 2 days and 7 days after treatment.

[2] = tested on: termite (Reticulitermes flavipes) workers; assay: Test to Determine Termite Mortality by Applications of Combinations of Bifenthrin and Clothianadin (soil column in glass tube)
Description: as §1
Test compositions made up of TALSTAR® TERMITICIDE/INSECTICIDE and a wettable powder of clothianadin in distilled water were prepared that provided appropriate rates of application of combinations of bifenthrin and clothianadin, as well as bifenthrin and clothianadin alone.
as §2, with “clothianadin” for “imidacloprid”

[3] = tested on: termite (Reticulitermes flavipes) workers; assay: Test to Determine Termite Mortality by Applications of Combinations of Bifenthrin and Thiamethoxam (soil column in glass tube)
Description: as §1
Test compositions made up of TALSTAR® TERMITICIDE/INSECTICIDE and a wettable powder of thiamethoxam in distilled water were prepared that provided appropriate rates of application of combinations of bifenthrin and thiamethoxam, as well as bifenthrin and thiamethoxam alone.
as §2, with “thiamethoxam” for “imidacloprid”

[4] = Rate of Appln. 10 PPM (0.001 % by weight)
[5] = Rate of Appln. 50 PPM (0.005 % by weight)

**Q.** How did the “Mortality Rate @ 1 Day” value [1, 4] turn out when `Cc1c(COC(=O)[C@@H]2[C@H](/C=C(\Cl)C(F)(F)F)C2(C)C)cccc1-c1ccccc1` (racemic) [A, bifenthrin] was run?
**A.** 13%

**Q.** And the “Mortality Rate @ 1 Hour” value [1, 4]?
**A.** 0%

**Q.** What about the “Mortality Rate @ 2 Days” value [1, 4] of the same compound?
**A.** 24%

**Q.** What about the “Mortality Rate @ 2 Hours” value [1, 4] of the same compound?
**A.** 0%

**Q.** What about the “Mortality Rate @ 7 Days” value [1, 4] of the same compound?
**A.** 95%

**Q.** What about the “Mortality Rate @ 1 Day” value [1, 5] of the same compound?
**A.** 21%

**Q.** What about the “Mortality Rate @ 1 Hour” value [1, 5] of the same compound?
**A.** 0%

**Q.** What about the “Mortality Rate @ 2 Days” value [1, 5] of the same compound?
**A.** 78%

**Q.** What about the “Mortality Rate @ 2 Hours” value [1, 5] of the same compound?
**A.** 0%

**Q.** And the “Mortality Rate @ 7 Days” value [1, 5]?
**A.** 100%

**Q.** What about the “Mortality Rate @ 1 Day” value [2, 4] of the same compound?
**A.** 13%

**Q.** And the “Mortality Rate @ 1 Hour” value [2, 4]?
**A.** 0%

**Q.** What about the “Mortality Rate @ 2 Days” value [2, 4] of the same compound?
**A.** 24%

**Q.** And the “Mortality Rate @ 2 Hours” value [2, 4]?
**A.** 0%

**Q.** And the “Mortality Rate @ 7 Days” value [2, 4]?
**A.** 95%

**Q.** And the “Mortality Rate @ 1 Day” value [2, 5]?
**A.** 21%

**Q.** What about the “Mortality Rate @ 1 Hour” value [2, 5] of the same compound?
**A.** 0%

**Q.** And the “Mortality Rate @ 2 Days” value [2, 5]?
**A.** 78%

**Q.** And the “Mortality Rate @ 2 Hours” value [2, 5]?
**A.** 0%

**Q.** And the “Mortality Rate @ 7 Days” value [2, 5]?
**A.** 100%

**Q.** And the “Mortality Rate @ 1 Day” value [3, 4]?
**A.** 3%

**Q.** What about the “Mortality Rate @ 1 Hour” value [3, 4] of the same compound?
**A.** 0%

**Q.** And the “Mortality Rate @ 2 Days” value [3, 4]?
**A.** 5%

**Q.** And the “Mortality Rate @ 2 Hours” value [3, 4]?
**A.** 0%

**Q.** And the “Mortality Rate @ 7 Days” value [3, 4]?
**A.** 100%

**Q.** And the “Mortality Rate @ 1 Day” value [3, 5]?
**A.** 10%

**Q.** What about the “Mortality Rate @ 1 Hour” value [3, 5] of the same compound?
**A.** 0%

**Q.** And the “Mortality Rate @ 2 Days” value [3, 5]?
**A.** 65%

**Q.** And the “Mortality Rate @ 2 Hours” value [3, 5]?
**A.** 0%

**Q.** What about the “Mortality Rate @ 7 Days” value [3, 5] of the same compound?
**A.** 100%
